The values below come from article PMC10216478, “Development of a Non-Peptide Angiotensin II Type 1 Receptor Ligand by Structural Modification of Olmesartan as a Biased Agonist” (Biomedicines, 2023).

In this test the target is T1, AT1 Q257A receptor (Rattus norvegicus, UniProt P25095, Q257A).
T1 construct: expressed in transfected cells; host or cells: COS7
T1 sequence (P25095 1-359 Q257A): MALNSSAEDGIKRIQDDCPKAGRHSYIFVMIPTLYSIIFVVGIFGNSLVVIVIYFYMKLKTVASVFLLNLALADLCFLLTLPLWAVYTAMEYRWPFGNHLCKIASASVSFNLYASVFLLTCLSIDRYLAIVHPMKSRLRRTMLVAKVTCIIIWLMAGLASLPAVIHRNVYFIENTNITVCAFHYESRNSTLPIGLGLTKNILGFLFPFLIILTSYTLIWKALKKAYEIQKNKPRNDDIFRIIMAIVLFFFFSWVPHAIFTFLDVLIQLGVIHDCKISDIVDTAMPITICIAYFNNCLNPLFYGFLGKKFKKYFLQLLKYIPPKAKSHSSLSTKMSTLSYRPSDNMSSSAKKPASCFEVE
The experiment in a line: Competition binding study, 125I-[Sar1,Ile8]Ang II, AT1 Q257A receptor. The conditions noted are these: competition with 125I-[Sar1,Ile8]Ang II, n = 3, mean ± standard error, read-out: Binding affinity (Kd). The text has this: We mutated four amino acids in transmembrane (TM) III, VI, and VII in the AT1 receptor (L112A, Q257A, Y292A, and N295A receptors). We determined the mutation sites of the AT1 receptor according to ARB, which produced olmesartan derivatives with different interactions and functions toward the AT1 receptor, as previously reported by Zhang et al., since the additional 4-hydroxybenzyl groups of R781253 and R794847 were predicted to extend to a sub-pocket on the bottom of the AT1 receptor ligand-binding pocket consisting of Leu^112 and Gln^257. In addition, since the biased ligand TRV027 induced changes near the NPxxY motif in TM domain 7 that are related to receptor activation, Tyr^292 and Asn^295 in the AT1 receptor were mutated.
The synthetic rat AT1 receptor gene, which was cloned in the shuttle expression vector pMT-2, was used for expression and mutagenesis, as described previously. COS7 cells (No. CRL-1651, ATCC, Manassas, VA, USA) were cultured in 10% fetal bovine serum (FBS) and penicillin- and streptomycin-supplemented Dulbecco’s modified Eagle’s essential medium (PS-DMEM) in 5% CO2 at 37 °C. In the experiments, cells were grown without a cell-growth supplement. To express the AT1 receptor protein, 10 µg of purified plasmid DNA per 10^7 cells was used in the transfection. Wild-type and mutated AT1 receptors were transiently transfected into cells using Lipofectamine 2000 liposomal reagent (Roche Applied Science, Penzberg, Germany). Cells were plated and grown and were 70–90% confluent at the time of transfection. We incubated plasmid DNA (10 µg)–lipid (10 µL) complexes for 5 min at room temperature and added and incubated the complexes with cells for 24 h. We then analyzed the parameters in transfected cells. Cell viability was >95% according to trypan blue exclusion analysis in the control experiments. Transfected cells that had been cultured for 48–72 h were harvested. Cell membranes were prepared using the nitrogen Parr bomb disruption or freeze–thaw methods.
The Kd (nM) values of receptor binding were determined with ^125I-[Sar^1, Ile^8]AngII-binding experiments under equilibrium conditions. Binding kinetics were determined following the methods described in the literature. We carried out binding by using ^125I-[Sar^1, Ile^8] AngII (2200 Ci/mmol) and an increasing concentration (10^−11–10^−5 M) of each unlabeled compound. Nonspecific binding of ^125I-[Sar^1, Ile^8] Ang II was determined in the presence of a high concentration (10^−6 M) of unlabeled [Sar^1, Ile^8]. Next, the incubation mixture was separated by vacuum filtration through Whatman GF/C glass filters (Disposable Filter Funnels Grade GF/C, GE Healthcare), and presoaked with 0.1% polyethylenimine. The filter was washed with 3 mL of ice-cold stop buffer (25 mM Tris–HCl, pH 7.4, 1 mM MgCl2). The radioactivity trapped on the filters was quantified using an automatic γ-counter. The percentage (%) of specific binding of ^125I-[Sar^1, Ile^8]Ang II was calculated using the following formula: 100 × (% total binding of ^125I-[Sar^1, Ile^8]Ang II—nonspecific binding of ^125I-[Sar^1, Ile^8]Ang II)/(% total binding of ^125I-[Sar^1, Ile^8]Ang II).
Broadly, the Kd is the constant that tells how readily two partners part at equilibrium. Consider `CCCc1nc(C(C)(C)O)c(C(=O)O)n1Cc1ccc(-c2cc(Cc3ccc(O)cc3)ccc2-c2nnn[nH]2)cc1` [R781253], for which the Kd came to 14 ± 6 nM.

Consider `CCCc1nc(C(C)(C)O)c(C(N)=O)n1Cc1ccc(-c2cc(Cc3ccc(O)cc3)ccc2-c2nnn[nH]2)cc1` [R794847], for which the Kd amounted to 2.7 ± 0.8 nM.

As to `CCCc1nc(C(C)(C)O)c(C(=O)O)n1Cc1ccc(-c2ccccc2-c2nnn[nH]2)cc1` [Olmesartan, olmesartan], the Kd was determined as 228 ± 38 nM.

With `CCCc1nc(C(C)(C)O)c(C(N)=O)n1Cc1ccc(-c2ccccc2-c2nnn[nH]2)cc1` [R239470], the Kd was 20 ± 2 nM.
